Measured values published in patent publication USRE47221E1, “Tricyclic compounds” (AbbVie Inc., priority 2009, dated 2019).

Target: T1, Jak3 (Homo sapiens, UniProt P52333)
T1 construct: Jak3 enzyme (aa 811-1103); expressed in SF9 cells as a GST fusion; GST; made in house; host or cells: SF9 insect cells
Experiment: Jak3 enzyme data for selected compounds
Assay type: biochemical

T1 sequence (P52333 811-1103): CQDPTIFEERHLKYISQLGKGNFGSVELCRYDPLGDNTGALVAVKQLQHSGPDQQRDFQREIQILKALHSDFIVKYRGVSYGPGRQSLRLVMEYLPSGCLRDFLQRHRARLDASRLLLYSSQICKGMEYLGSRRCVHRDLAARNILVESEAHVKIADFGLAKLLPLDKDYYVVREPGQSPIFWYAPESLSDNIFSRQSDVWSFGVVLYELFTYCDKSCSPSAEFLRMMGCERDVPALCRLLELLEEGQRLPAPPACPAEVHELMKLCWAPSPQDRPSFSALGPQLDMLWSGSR

SMILES | IC50 [nM]
CC[C@@H]1C[C@@H](O)C[C@@H]1c1nnc2cnc3[nH]ccc3n12 (single isomer, unassigned) [AA.1.106, 3-ethyl-4-(6H-pyrrolo[2,3-e][1,2,4]triazolo[4,3-a]pyrazin-1-yl)cyclopentanol] | > 1000
CC[C@@H]1C[C@H](NS(=O)(=O)C2CC2)C[C@@H]1c1nnc2cnc3[nH]cc(C#N)c3n12 [LL.1.3] | > 1000
c1cc2c3c(cnc2[nH]1)CCCN3C1CCCCC1 [Example #28, 1-cyclohexyl-2,3,4,7-tetrahydro-1H-pyrrolo[2,3-h][1,6]naphthyridine] | > 1000
CC[C@H]1C[C@H](Oc2ccc(C(F)(F)F)cn2)C[C@H]1c1nnc2cnc3[nH]ccc3n12 (single isomer, unassigned) [AA.1.96, 1-(2-ethyl-4-(5-(trifluoromethyl)pyridin-2-yloxy)cyclopentyl)-6H-pyrrolo[2,3-e][1,2,4]triazolo[4,3-a]pyrazine] | > 1000
O=S(=O)(CCC(F)(F)F)NC[C@H]1CC[C@H](c2ncc3cnc4[nH]ccc4n23)C1 (single isomer, unassigned) [AA.1.63] | > 1000
CC[C@H]1C[C@H](OCc2cccc(C#N)c2)C[C@H]1c1nnc2cnc3[nH]ccc3n12 (single isomer, unassigned) [AA.1.100, 3-((3-ethyl-4-(6H-pyrrolo[2,3-e][1,2,4]triazolo[4,3-a]pyrazin-1-yl)cyclopentyloxy)methyl)benzonitrile] | > 1000
O=C(N1CCCC1)N1CCC[C@@H](c2ncc3cnc4[nH]ccc4n23)C1 [I.3.1] | 100 to 1000
CC[C@@H]1C[C@H](OCc2ccc(OC)cc2)C[C@H]1c1nnc2cnc3[nH]ccc3n12 (racemic) [D.1.38] | 100 to 1000
O=S(=O)(NC12CCC(c3nnc4cnc5[nH]ccc5n34)(CC1)CC2)C1CCC1 [D.1.39] | 100 to 1000
C[C@@H]1C[C@H](OCC2CC2)C[C@@H]1c1nnc2cnc3[nH]ccc3n12 [D.1.54] | > 1000
CC[C@@H]1C[C@H](NS(=O)(=O)C2CC2)C[C@@H]1c1nnc2cnc3[nH]cc(C)c3n12 [LL.1.1] | 100 to 1000
O=C(N1CCC(F)(F)CC1)N1CCC[C@@H](c2ncc3cnc4[nH]ccc4n23)C1 [Example #6, (R)-(3-(6H-imidazo[1,5-a]pyrrolo[2,3-e]pyrazin-1-yl)piperidin-1-yl)(4,4-difluoropiperidin-1-yl)methanone] | 100 to 1000
CC[C@@H]1C[C@H](N(C#N)S(=O)(=O)C2CC2)C[C@@H]1c1nnc2cnc3[nH]ccc3n12 [Example #32, N-cyano-N-((1S,3R,4S)-3-ethyl-4-(6H-pyrrolo[2,3-e][1,2,4]triazolo[4,3-a]pyrazin-1-yl)cyclopentyl)cyclopropanesulfonamide] | 100 to 1000
N#Cc1cnc(NC[C@H]2CC[C@@H](c3ncc4cnc5[nH]ccc5n34)C2)cn1 [D.2.15] | 100 to 1000
O=S(=O)(NC12CCC(c3cnc4cnc5[nH]ccc5n34)(CC1)CC2)C1CC1 [K.3.1] | 100 to 1000
CC[C@@H]1C[C@H](N(CO)S(=O)(=O)C2CC2)C[C@@H]1c1nnc2cnc3[nH]cc(C)c3n12 [LL.1.2] | > 1000
CC[C@@H]1C[C@H](OCC2CC2)C[C@@H]1c1nnc2cnc3[nH]ccc3n12 (single isomer, unassigned) [AA.1.80, 1-(4-(cyclopropylmethoxy)-2-ethylcyclopentyl)-6H-pyrrolo[2,3-e][1,2,4]triazolo[4,3-a]pyrazine] | > 1000
CC[C@@H]1C[C@H](NS(=O)(=O)CCN2CCC(F)(F)CC2)C[C@@H]1c1nnc2cnc3[nH]ccc3n12 [D.1.60] | > 1000
C[C@@H]1C[C@H](Nc2cccc(C#N)c2)C[C@@H]1c1nnc2cnc3[nH]ccc3n12 [D.2.6] | > 1000
CC[C@@H]1C[C@H](N(C)S(=O)(=O)C2CC2)C[C@@H]1c1nnc2cnc3[nH]ccc3n12 [D.1.21] | 100 to 1000

Further lines, results first:

IC50 [nM] | SMILES
100 to 1000 | CC[C@@H]1C[C@H](N(CC2CC2)S(=O)(=O)C2CC2)C[C@@H]1c1nnc2cnc3[nH]ccc3n12 [D.1.22]
100 to 1000 | C[C@@H]1C[C@H](NS(=O)(=O)C2(C)CC2)C[C@@H]1c1ncc2cnc3[nH]ccc3n12 [D.1.77]
< 100 | CC[C@@H]1C[C@H](NS(=O)(=O)C2CC2)C[C@@H]1c1nc(CO)c2cnc3[nH]ccc3n12 [Example #17, N-((1S,3R,4S)-3-ethyl-4-(3-(hydroxymethyl)-6H-imidazo[1,5-a]pyrrolo[2,3-e]pyrazin-1-yl)cyclopentyl)cyclopropanesulfonamide]
< 100 | C[C@@H]1CCN(C(=O)N2CCC[C@@H]2C(F)(F)F)C[C@@H]1c1ncc2cnc3[nH]ccc3n12 [J.2.15]
< 100 | C[C@@H]1CCN(C(=O)CCc2cc(Cl)no2)C[C@@H]1c1ncc2cnc3[nH]ccc3n12 [H.1.10]
100 to 1000 | CC1(C)CCN(C(=O)N2CCC[C@@H](c3ncc4cnc5[nH]ccc5n34)C2)C1 [J.3.6]
100 to 1000 | CC[C@@H]1C[C@@H](OCc2cccc(C#N)c2)C[C@@H]1c1nnc2cnc3[nH]ccc3n12 (single isomer, unassigned) [AA.1.99, 3-((3-ethyl-4-(6H-pyrrolo[2,3-e][1,2,4]triazolo[4,3-a]pyrazin-1-yl)cyclopentyloxy)methyl)benzonitrile]
< 100 | C[C@@H]1CCN(C(=O)Nc2ccc(C#N)cc2)C[C@@H]1c1ncc2cnc3[nH]ccc3n12 [QQ.1.4]
< 100 | C[C@@H]1CCN(C(=O)N2CCCC2)C[C@@H]1c1ncc2cnc3[nH]ccc3n12 (racemic) [I.2.1]
< 100 | CC[C@@H]1C[C@H](NS(=O)(=O)CCC(F)(F)F)C[C@@H]1c1cnc2cnc3[nH]ccc3n12 (single isomer, unassigned) [AA.1.77, N-(3-ethyl-4-(3H-imidazo[1,2-a]pyrrolo[2,3-e]pyrazin-8-yl)cyclopentyl)-3,3,3-trifluoropropane-1-sulfonamide]
100 to 1000 | CC[C@@H]1C[C@@H](OC2CCOCC2)C[C@@H]1c1nnc2cnc3[nH]ccc3n12 (single isomer, unassigned) [AA.1.91, 1-(2-ethyl-4-(tetrahydro-2H-pyran-4-yloxy)cyclopentyl)-6H-pyrrolo[2,3-e][1,2,4]triazolo[4,3-a]pyrazine]
100 to 1000 | O=C(C1CC(F)(F)C1)N1CCC[C@@H](c2ncc3cnc4[nH]ccc4n23)C1 [H.4.1]
100 to 1000 | C[C@@H]1CCN(C(=O)C2(C#N)CC2)C[C@@H]1c1ncc2cnc3[nH]ccc3n12 (racemic) [H.3.14]
100 to 1000 | CC[C@@H]1C[C@H](NS(=O)(=O)CCn2ccnn2)C[C@@H]1c1nnc2cnc3[nH]ccc3n12 [D.1.58]
< 100 | C[C@@H]1CCN(C(=O)N2CCC2)C[C@@H]1c1ncc2cnc3[nH]ccc3n12 [J.2.6]
< 100 | CC[C@@H]1C[C@@H](Oc2ccc(C#N)cc2)C[C@@H]1c1nnc2cnc3[nH]ccc3n12 [Example #4, 4-((1R,3R,4S)-3-ethyl-4-(6H-pyrrolo[2,3-e][1,2,4]triazolo[4,3-a]pyrazin-1-yl)cyclopentyloxy)benzonitrile]

IC50 [nM] | SMILES
< 100 | C[C@@H]1CCN(C(=O)N2CCCCC2)C[C@@H]1c1ncc2cnc3[nH]ccc3n12 [I.1.1, ((3R,4R)-3-(6H-imidazo[1,5-a]pyrrolo[2,3-e]pyrazin-1-yl)-4-methylpiperidin-1-yl)(piperidin-1-yl)methanone]
100 to 1000 | CC[C@@H]1C[C@H](Oc2cnc(C#N)cn2)C[C@@H]1c1nnc2cnc3[nH]ccc3n12 (relative stereo) [AA.1.37, 5-(3-ethyl-4-(6H-pyrrolo[2,3-e][1,2,4]triazolo[4,3-a]pyrazin-1-yl)cyclopentyloxy)pyrazine-2-carbonitrile]
< 100 | CCC1(S(=O)(=O)N[C@H]2C[C@@H](C)[C@@H](c3ncc4cnc5[nH]ccc5n34)C2)CC1 [D.1.83]
< 100 | C[C@@H]1CCN(C(=O)N2CCC[C@H]2C#N)C[C@@H]1c1ncc2cnc3[nH]ccc3n12 [J.2.3]
< 100 | C[C@@H]1CCN(S(=O)(=O)N2CCCC2)C[C@@H]1c1ncc2cnc3[nH]ccc3n12 [DD.1.1]
< 100 | CC[C@@H]1C[C@@H](OCc2ccc(C#N)cc2)C[C@@H]1c1nnc2cnc3[nH]ccc3n12 (single isomer, unassigned) [AA.1.101, 4-((3-ethyl-4-(6H-pyrrolo[2,3-e][1,2,4]triazolo[4,3-a]pyrazin-1-yl)cyclopentyloxy)methyl)benzonitrile]
< 100 | C[C@@H]1C[C@H](NS(=O)(=O)N2CC(F)(F)C2)C[C@@H]1c1cnc2cnc3[nH]ccc3n12 (single isomer, unassigned) [Example #25]
< 100 | CS(=O)(=O)Nc1ccc(-c2nc(C3CCCCC3)n3c2cnc2[nH]ccc23)cc1 [UUU.1.1]
< 100 | C[C@@H]1CCN(C(=O)N2CC[C@H](C#N)C2)C[C@@H]1c1ncc2cnc3[nH]ccc3n12 (racemic) [J.2.1]
< 100 | CC[C@@H]1C[C@H](NS(=O)(=O)C2CC2)C[C@@H]1c1nc(CCCO)c2cnc3[nH]ccc3n12 [Example #14, N-((1S,3R,4S)-3-ethyl-4-(3-(3-hydroxypropyl)-6H-imidazo[1,5-a]pyrrolo[2,3-e]pyrazin-1-yl)cyclopentyl)cyclopropanesulfonamide]
< 100 | C[C@@H]1C[C@H](Nc2cnc(C#N)cn2)C[C@H]1c1cnc2cnc3[nH]ccc3n12 (single isomer, unassigned) [AA.1.18, 5-(3-(3H-imidazo[1,2-a]pyrrolo[2,3,-e]pyrazin-8-yl)-4-methylcyclopentylamino)pyrazine-2-carbonitrile]
< 100 | CC[C@@H]1C[C@H](NS(=O)(=O)C2CC2)CN1c1ncc2cnc3[nH]ccc3n12 [D.1.46]
< 100 | C[C@@H]1CCN(c2ncc(C#N)s2)C[C@@H]1c1ncc2cnc3[nH]ccc3n12 (racemic) [L.1.4]
< 100 | O=C(C1CC(F)(F)C1)N1CCC[C@@H](c2cnc3cnc4[nH]ccc4n23)C1 [Example #3, (R)-(3-(3H-imidazo[1,2-a]pyrrolo[2,3-e]pyrazin-8-yl)piperidin-1-yl)(3,3-difluorocyclobutyl)methanone]
< 100 | C[C@@H]1CCN(C(=O)CC(F)(F)F)C[C@@H]1c1ncc2cnc3[nH]ccc3n12 [H.1.2]
